Patent US20070224194A1, “Methods for Inhibiting Angiogenesis and/or Lymphangiogenesis” (LUDWIG INSTITUTE FOR CANCER RESEARCH, priority 2004, published 2007)
The star is where a group is joined. Decanoyl = CCCCCCCCCC(=O)*; CH2Cl = ClC*

Columns and labels:
[1] = test system: proteolytic processing of VEGF-DΔN; experiment: Processing of VEGF-DΔN by 293EBNA cells (cleavage of C-terminal propeptide from VHD); type: cell-based, human; conditions: for band representing mature VHD from VEGF-DΔN: 1, 10, 50, 100 μM, 18 hours
Text: An expression plasmid encoding a truncated derivative of human VEGF-D consisting of the N-terminal propeptide and the VHD tagged at the carboxyl terminus with the FLAG epitope (referred to as VEGF-DΔC) (FIG. 3, top panel) has been previously described (Stacker et al, J. Biol. Chem. 274 32127-32136, 1999). The VEGF-DΔC protein construct facilitates study of cleavage of the N-terminal propeptide from the VHD. The conditioned media of 293EBNA cells stably transfected with the VEGF-DΔC expression plasmid contain a mixture of VEGF-D proteins, including unprocessed VEGF-DΔC, and the proteolytically processed VHD. A second cell line was generated by stable transfection of 293EBNA cells with an expression construct encoding VEGF-DΔN, a truncated derivative of human VEGF-D consisting of the VHD tagged at the amino terminus with the FLAG epitope and C-terminal propeptide (FIG. 3, top panel). This protein construct facilitates study of cleavage of the C-terminal propeptide from the VHD. The conditioned media of 293EBNA cells expressing VEGF-DΔN contain a mixture of VEGF-D proteins, consisting of unprocessed VEGF-DΔN, and the proteolytically processed VHD. The VEGF-DΔN expression plasmid was constructed by replacing the 2-kb EcoRV fragment of the pAPEX-3 construct for full-length VEGF-D with the 2-kb EcoRV fragment of the pAPEX-3 construct for VEGF-DΔNΔC-FLAG (Stacker et al, J. Biol. Chem. 274 32127-32136, 1999).
The 293EBNA cell lines expressing VEGF-D-FULL-FLAG, VEGF-DΔC or VEGF-DΔN were seeded into 24-well plates (8×10^4 cells/well), in medium supplemented with Dec-RVKR-CMK dissolved in methanol, to a final concentration of 0, 1, 10, 50 or 100 μM. After 18 hours incubation (37° C., 10% CO2 in an humidified incubator), conditioned cell culture media were removed and clarified by centrifugation (5 minutes, 250×g, 4° C.). […] The precipitated VEGF-D species were then analysed by reducing SDS-PAGE and Western blotting using a biotinylated antibody against the VHD of human VEGF-D (R&D Systems), and Streptavidin-horse radish peroxidase conjugate (Zymed).

[2] = test system: BaF3 cells expressing the VEGFR-3/EpoR chimeric receptor; experiment: BaF3 bioassay, VEGFR-3/EpoR chimeric receptor, [3H]thymidine incorporation; type: cell-based; conditions: paper example in present tense
Text: In order to test if a furin or broad-range PC inhibitor can block the biological effects of VEGF-D, mammalian cells are employed that proteolytically process VEGF-D, such as 293EBNA or Capan-1 pancreatic carcinoma cells. Derivatives of these cells harboring an expression construct for full-length VEGF-D are transfected with the shRNA construct for furin (as described here) or treated with a broad-range PC inhibitor such as decanoyl-Arg-Val-Lys-Arg-chloromethylketone (see, PCT WO 2005/112971 A1, the disclosure of which is incorporated herein by reference in its entirety). The inhibition of VEGF-D processing by these agents is confirmed by immunoprecipitation/Western blotting of the conditioned cell culture media using antibody that binds the VHD of VEGF-D. The conditioned cell culture media from cells treated with the inhibitors (and from cells in which these agents are omitted, i.e. “mock” treatments) are used for incubations with BaF3 pre-B cells expressing chimeric receptors consisting of the extracellular domains of VEGFR-2 or VEGFR-3 and the transmembrane and cytoplasmic domains of the erythropoietin receptor (EpoR) (Stacker et al., J. Biol. Chem., 274:34884-34892, 1999; Achen et al., Eur. J. Biochem., 267:2505-2515, 2000). […] The proliferation of the cells in response to the conditioned media containing VEGF-D is monitored by incorporation of [3H]thymidine into DNA. […]

Decanoyl-Arg-Val-Lys-Arg-chloromethylketone (Decanoyl-RVKR-CH2Cl) [Dec-RVKR-CMK]
proteolytic processing of VEGF-DΔN ([1]; 100 μM): completely blocked | band representing mature VHD from VEGF-DΔN [1]: reduced in abundance in a dose dependent manner | band representing mature VHD from VEGF-DΔN ([1]; listed as dec-RVKR-CMK): blocked each of these processing events in a dose-dependent fashion | proliferation of BaF3 VEGFR-3/EpoR cells induced by conditioned media of treated VEGF-D-expressing cells [2]: do not induce significant proliferation
